The assay concerns R2(VC). The assay is described as follows: cells. The note with it: 96 h, read-out: >1000. More on the design: species or system CHO sublines.

Take `Nc1nc2[nH]cc(CCCc3ccc(C(=O)N[C@@H](CCC(=O)O)C(=O)O)cc3)c2c(=O)[nH]1` [compound 7]: the IC50 is over 1000 nM.

For `Nc1nc2[nH]cc(CCCCc3ccc(C(=O)N[C@@H](CCC(=O)O)C(=O)O)cc3)c2c(=O)[nH]1` [compound 8], the IC50 was over 1000 nM.

The values are drawn from paper PMC3917155 (Journal of medicinal chemistry, 2013).
